Measurements reported in patent US20230026277A1, “COMPOSITION FOR PREVENTION, ALLEVIATION, OR TREATMENT OF RESPIRATORY DISEASE” (MICROX CO., LTD., priority 2019, published 2023).

What was measured:
Format in all cases: in vivo
MKP-1 protein = experiment: Western blot of MKP-1 protein in lung tissue of asthma-induced mice
Experimental: (§1) Also, on days 21 and 28 from the experimental starting date, the mice were put into a plastic box (Plexiglas (Rohm & Haas, Philadelphia, Pa.) exposure chamber; 24.5 cm×40.5 cm×15.0 cm), and 1.5% ovalbumin was evaporated using an ultrasonic nebulizer (NE-U12; output 0.8 mL/min; Omron, Japan), and injected into the box for 30 minutes so that the mice inhaled the evaporated ovalbumin (secondary challenge).
(§2) A tissue was extracted from each of the mice manufactured in Experimental Method 1, and finely ground to a cell level. Thereafter, the cells were lysed in a cell lysis buffer containing a protease inhibitor to obtain a cell lysate. The cell lysate was centrifuged to obtain protein. Then, an equivalent amount of the proteins obtained from the cells were loaded on an SDS-PAGE gel and electrophoresed. The proteins present in the electrophoresed gel were transferred to a PVDF membrane. […] The PVDF membrane was washed three times with a TBS-T buffer, and visualized and quantified using an ECL Western blotting detection reagent. […]
(§3) Small interfering RNA (siRNA; hereinafter referred to as “MKP-1 siRNA”) against RNA encoding an MKP-1 protein, and control siRNA strands were purchased from SANTA CRUZ (USA). […] An effect of the MKP-1 siRNA interference was determined by measuring an expression level of the MKP-1 protein in the lung tissue through Western blot analysis. […]

NF-κB and TNF-α = experiment: NF-κB (Western blot) and TNF-α (ELISA) in asthma-induced mice
Experimental: as §1
A level of cytokines in the bronchoalveolar lavage fluid obtained in Experimental Method 2 was measured using an ELISA kit. Here, ELISA kits specifically manufactured for TNF-α, IL-4, IL-5, and IL-13 were used.
A tissue was extracted from each of the mice manufactured in Experimental Method 1, and finely ground to a cell level. Thereafter, the cells were lysed in a cell lysis buffer containing a protease inhibitor to obtain a cell lysate. The cell lysate was centrifuged to obtain protein. Then, an equivalent amount of the proteins obtained from the cells were loaded on an SDS-PAGE gel and electrophoresed. The proteins present in the electrophoresed gel were transferred to a PVDF membrane. The PVDF membrane was washed, and added to a blocking buffer in which 5% skim milk was included in a TBS-T buffer, and incubated at room temperature. Then, the PVDF membrane was incubated at room temperature with an antibody diluted 1:1,000 in a TBS-T buffer containing 3% BSA. Then, the PVDF membrane was washed with a TBS-T buffer, and incubated at room temperature for an hour with a dilute solution containing HRP-bound IgG. The PVDF membrane was washed three times with a TBS-T buffer, and visualized and quantified using an ECL Western blotting detection reagent.
Here, antibodies specific to elastin, caspase-3, collagen, MKP-1, p-cPLA, p-p38, NF-κB(p65), CK2α, GAPDH, or β-actin were used in the Western blot.
(§4) Specifically, the secondary challenge (ovalbumin injection) was performed according to the method described above in Experimental Method 1, and the lungs were extracted after an hour, and then measured according to the method described above in Experimental Method 7. The results are shown in A of FIG. 9. Also, the level of TNF-α corresponding to an NK-κB-dependent cytokine was measured by ELISA according to the method described above in Experimental Method 4. The results are shown in B of FIG. 9. […]
as §4, with “The” for “Specifically, the”, “30 or 60 minutes,” for “an hour,”, “The results are shown in A of FIG. 9.” left out, “4.” for “4. The results are shown in B of FIG. 9.”

[1] = tested on: elastin, collagen, and caspase-3 proteins; experiment: Western blot of elastin, collagen and caspase-3 in chronic obstructive pulmonary disease-induced mice; conditions: COPD induced 30 or 60 days; oral 250 μg/kg/day for the last 15 or 30 days; FIGS. 17 and 18
Experimental: Eight-week-old female […] mice (Orient Bio Korea Inc., Korea) having no certain pathogen were accommodated in an aseptic laminar-flow cabinet, and bred by supplying a standard solid feed ad libitum. When the following experiment was performed, the mice were made to correspond to 7- to 8-weeks old, and all laboratory animals were managed according to the protocol approved by the Institutional Animal Care and Use Committee of the Chonbuk National University Medical School.
Then, the mixed solution was intranasally administered to the mice of Preparative Example 1 once a day for 30 days or 60 days from the experimental starting date. Here, a group to which only physiological saline was intranasally administered and a group to which a solution obtained by mixing 0.25 μg of LPS with 50 μL of a 10% DMSO solution was administered were used as the controls.
as §2, with “electrophoresed.” for “electrophoresed. The proteins present in the electrophoresed gel were transferred to a PVDF membrane.”

[2] = tested on: p-cPLA and p-p38 proteins; experiment: Western blot of p-cPLA and p-p38 in lung tissue of asthma-induced mice
Experimental: as §1, §2, §3

[3] = lung tissue, oral daily 200, 500 or 1,000 μg/kg/day, 10 and 30 minutes after secondary challenge, FIG. 7
[4] = with MKP-1 siRNA treatment, same conditions as [5-1], FIG. 8

How did the “level of the MKP-1 protein” value (MKP-1 protein; [3]) turn out when CC(=O)NC(=O)CC[C@H](NC(C)=O)C(=O)O [Preparation Example 3, 2,5-diacetamido-5-oxopentanoic acid] was run?
Its value is “more increased depending on the concentration”.

And the “level of the MKP-1 protein” value (MKP-1 protein; [4])?
Its value is “did not increase”.

What about the “effect for reducing the levels of NF-κB and TNF-α” value (NF-κB and TNF-α; 400 μg/kg/day with siRNA specific to MKP-1, FIG. 9) of the same compound?
The value was “not observed”.

What about the “levels of NF-κB and TNF-α” value (NF-κB and TNF-α; oral daily 400 μg/kg/day, an hour after secondary challenge, FIG. 9A and B) of the same compound?
Its value is “decreased”.

And the “levels of the elastin, collagen, and caspase-3 proteins” value [1]?
Its value is “decreased to that of the negative control (saline)”.

What about the “levels of the p-cPLA and p-p38 proteins” value [2, 3] of the same compound?
Its value is “decreased depending on the concentration”.

What about the “phosphorylation levels of cPLA2 and p38” value [2, 4] of the same compound?
The value was “increased”.
